# Laboratory results from ChEMBL document CHEMBL4354875, “Structural Basis for EGFR Mutant Inhibition by Trisubstituted Imidazole Inhibitors” (J Med Chem, 2020).
# What was measured:
# [1] = target: Epidermal growth factor receptor (Homo sapiens, UniProt P00533, C797S/L858R/T790M); test: Inhibition of human EGFR L858R/T790M/C797S mutant using poly[Glu:Tyr] (4:1) as substrate measured in presence of [gamma-33P]ATP by radiometric assay
# [2] = target: Epidermal growth factor receptor (Homo sapiens, UniProt P00533, L858R/T790M); test: Inhibition of human EGFR L858R/T790M mutant using poly[Glu:Tyr] (4:1) as substrate measured in presence of [gamma-33P]ATP by radiometric assay
# Sequence of Epidermal growth factor receptor (Homo sapiens, UniProt P00533, L858R/T790M) (P00533 25-1210 T790M/L858R limits assumed): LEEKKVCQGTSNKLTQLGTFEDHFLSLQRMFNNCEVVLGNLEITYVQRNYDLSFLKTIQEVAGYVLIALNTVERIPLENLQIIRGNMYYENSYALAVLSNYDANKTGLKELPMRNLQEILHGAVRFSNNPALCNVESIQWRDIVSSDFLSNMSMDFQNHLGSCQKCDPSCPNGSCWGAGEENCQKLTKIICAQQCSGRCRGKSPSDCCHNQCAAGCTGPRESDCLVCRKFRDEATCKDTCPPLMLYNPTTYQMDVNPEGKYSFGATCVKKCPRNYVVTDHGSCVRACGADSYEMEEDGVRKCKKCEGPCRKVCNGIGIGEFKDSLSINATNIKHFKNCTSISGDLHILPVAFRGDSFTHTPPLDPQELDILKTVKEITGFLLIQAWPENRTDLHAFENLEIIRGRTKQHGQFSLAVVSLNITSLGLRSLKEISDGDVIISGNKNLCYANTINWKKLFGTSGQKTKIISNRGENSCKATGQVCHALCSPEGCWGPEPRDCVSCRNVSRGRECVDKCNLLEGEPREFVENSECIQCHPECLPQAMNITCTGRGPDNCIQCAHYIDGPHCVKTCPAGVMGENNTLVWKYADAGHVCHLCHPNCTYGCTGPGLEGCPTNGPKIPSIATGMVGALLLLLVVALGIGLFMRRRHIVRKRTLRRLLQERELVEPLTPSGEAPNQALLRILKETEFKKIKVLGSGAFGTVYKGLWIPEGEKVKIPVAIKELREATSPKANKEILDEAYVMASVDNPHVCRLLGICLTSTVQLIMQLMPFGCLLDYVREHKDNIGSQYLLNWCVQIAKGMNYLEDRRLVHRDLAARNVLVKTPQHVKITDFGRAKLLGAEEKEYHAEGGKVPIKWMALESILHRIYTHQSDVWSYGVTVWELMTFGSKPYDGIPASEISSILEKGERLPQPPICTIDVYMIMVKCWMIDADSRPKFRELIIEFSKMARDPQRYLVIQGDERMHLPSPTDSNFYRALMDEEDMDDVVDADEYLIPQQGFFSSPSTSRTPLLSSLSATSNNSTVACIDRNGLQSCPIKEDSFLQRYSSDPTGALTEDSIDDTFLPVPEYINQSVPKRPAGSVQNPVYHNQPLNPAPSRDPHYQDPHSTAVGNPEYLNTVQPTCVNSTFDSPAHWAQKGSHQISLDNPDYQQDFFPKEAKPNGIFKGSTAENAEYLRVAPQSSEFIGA
# Sequence of Epidermal growth factor receptor (Homo sapiens, UniProt P00533, C797S/L858R/T790M) (P00533 25-1210 T790M/C797S/L858R limits assumed): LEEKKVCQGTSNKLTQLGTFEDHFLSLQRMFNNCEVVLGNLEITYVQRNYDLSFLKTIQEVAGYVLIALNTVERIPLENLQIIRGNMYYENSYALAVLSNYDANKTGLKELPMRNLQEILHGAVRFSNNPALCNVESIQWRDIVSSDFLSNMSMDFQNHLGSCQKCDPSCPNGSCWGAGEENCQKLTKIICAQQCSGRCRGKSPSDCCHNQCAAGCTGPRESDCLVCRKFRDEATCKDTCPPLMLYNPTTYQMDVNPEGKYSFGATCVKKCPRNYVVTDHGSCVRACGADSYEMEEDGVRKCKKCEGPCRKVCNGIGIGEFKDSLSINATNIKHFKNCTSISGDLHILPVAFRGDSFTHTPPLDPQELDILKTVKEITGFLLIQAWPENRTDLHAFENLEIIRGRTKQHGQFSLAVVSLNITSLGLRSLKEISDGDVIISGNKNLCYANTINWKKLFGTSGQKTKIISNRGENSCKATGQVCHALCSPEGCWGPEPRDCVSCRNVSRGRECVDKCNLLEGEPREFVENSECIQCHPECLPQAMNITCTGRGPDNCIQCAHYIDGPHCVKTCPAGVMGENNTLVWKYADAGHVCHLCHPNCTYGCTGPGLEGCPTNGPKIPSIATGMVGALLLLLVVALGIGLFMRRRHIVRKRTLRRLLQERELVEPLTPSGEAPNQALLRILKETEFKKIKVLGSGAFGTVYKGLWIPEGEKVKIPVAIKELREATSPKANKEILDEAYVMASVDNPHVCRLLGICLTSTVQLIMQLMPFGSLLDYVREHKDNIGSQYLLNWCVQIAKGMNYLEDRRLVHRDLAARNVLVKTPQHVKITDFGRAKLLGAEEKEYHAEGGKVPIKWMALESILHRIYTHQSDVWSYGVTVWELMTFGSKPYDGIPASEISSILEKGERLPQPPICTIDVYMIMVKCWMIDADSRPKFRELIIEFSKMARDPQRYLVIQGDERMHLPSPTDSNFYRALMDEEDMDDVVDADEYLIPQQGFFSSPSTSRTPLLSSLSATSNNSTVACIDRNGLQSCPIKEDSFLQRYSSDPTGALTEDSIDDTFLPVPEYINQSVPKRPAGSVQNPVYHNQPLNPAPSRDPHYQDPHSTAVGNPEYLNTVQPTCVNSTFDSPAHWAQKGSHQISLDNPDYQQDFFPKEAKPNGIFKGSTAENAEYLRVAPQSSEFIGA
Structure (SMILES),IC50 [1] [µM],IC50 [2] [µM]
C=CC(=O)Nc1ccc(OC)c(Nc2cc(-c3nc(SC)n(C)c3-c3ccc(F)cc3)ccn2)c1,> 5,0.001
C=CC(=O)Nc1ccc(OC)c(Nc2cc(-c3c(-c4ccc(F)cc4)nc(SC)n3C)ccn2)c1,> 5,0.111
